Patent publication US20250114357A1, “BIFUNCTIONAL PROTAC AND MOLECULAR GLUE COMPOUNDS AND METHODS OF USE THEREOF” (Biolexis Therapeutics, Inc., priority 2023, published 2025)

Target: T1, CDK9/CycT1 (Homo sapiens, UniProt P50750)
T1 construct: purchased SignalChem
Assay: ADP-Glo Kinase Assay
Assay type: biochemical
Settings: Table 1; assay not given
Procedure: ADP-Glo assay kit is purchased from Promega and the CDK9/CycT1 protein and PDKtide substrate are purchased from SignalChem. Compounds of Structure (I) are dosed in 10-dose IC50 mode in duplicate with 3-fold serial dilution starting at 100 μM. The reaction is started by pre-incubating 4 μL of protein (20 nM), 2 μL of substrate (100 μM), and 2 μL of serial diluted drug in 1× assay buffer (50 mM HEPES, 3 mM MgCl2, 3 mM MnCl2, and 1 mM DTT) for 30 minutes. After pre-incubating, 4 μL of ATP (1 μM) is added to each well and incubated for an additional 90 minutes. The ADP-Glo Reagent (10 μL) and Kinase Detection Reagent (20 μL) are added to each well and incubated as recommended by Promega. The reaction is quantified by measuring luminescence and the IC50 is calculated using GraphPad Prism software.

T1 sequence (P50750 whole entry): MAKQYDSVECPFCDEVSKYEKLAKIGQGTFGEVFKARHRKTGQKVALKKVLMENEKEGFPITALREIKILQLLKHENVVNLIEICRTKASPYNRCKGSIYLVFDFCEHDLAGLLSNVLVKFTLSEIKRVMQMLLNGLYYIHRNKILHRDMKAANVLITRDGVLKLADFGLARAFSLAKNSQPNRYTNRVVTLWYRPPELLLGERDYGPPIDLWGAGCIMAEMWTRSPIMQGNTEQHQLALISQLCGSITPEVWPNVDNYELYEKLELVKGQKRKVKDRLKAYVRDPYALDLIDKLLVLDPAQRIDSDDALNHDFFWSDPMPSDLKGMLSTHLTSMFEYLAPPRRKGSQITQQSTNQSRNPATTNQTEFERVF
T1 sequence (O60563 whole entry partner): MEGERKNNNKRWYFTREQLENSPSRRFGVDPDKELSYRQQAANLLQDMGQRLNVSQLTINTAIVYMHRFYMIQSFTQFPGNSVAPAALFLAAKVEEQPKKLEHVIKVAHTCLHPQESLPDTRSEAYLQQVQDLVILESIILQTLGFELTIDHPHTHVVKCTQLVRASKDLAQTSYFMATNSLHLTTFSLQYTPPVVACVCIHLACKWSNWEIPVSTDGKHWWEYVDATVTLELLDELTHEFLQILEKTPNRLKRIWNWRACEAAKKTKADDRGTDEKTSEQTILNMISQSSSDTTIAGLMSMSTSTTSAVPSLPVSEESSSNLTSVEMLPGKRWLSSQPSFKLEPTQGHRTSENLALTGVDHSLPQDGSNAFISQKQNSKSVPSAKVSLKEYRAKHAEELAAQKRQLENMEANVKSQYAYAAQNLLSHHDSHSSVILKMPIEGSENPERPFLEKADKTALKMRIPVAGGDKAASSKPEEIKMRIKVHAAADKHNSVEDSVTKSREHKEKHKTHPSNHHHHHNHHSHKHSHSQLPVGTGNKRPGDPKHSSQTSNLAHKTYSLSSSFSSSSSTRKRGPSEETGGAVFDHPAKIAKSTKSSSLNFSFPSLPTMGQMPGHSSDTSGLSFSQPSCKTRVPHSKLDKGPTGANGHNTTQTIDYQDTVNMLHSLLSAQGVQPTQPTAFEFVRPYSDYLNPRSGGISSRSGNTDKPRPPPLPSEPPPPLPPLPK

Row | Compound | IC50
1 | CC(C)c1c2cc(-c3ccnc(N[C@H]4CC[C@H](NCc5cccc6c5CN(C5CCC(=O)NC5=O)C6=O)C4)n3)ccc2nn1C (stereo partly drawn) [Compound I-8, 3-(4-((((1S,3S)-3-((4-(3-isopropyl-2-methyl-2H-indazol-5-yl)pyrimidin-2-yl)amino)cyclopentyl)amino)methyl)-1-oxoisoindolin-2-yl)piperidine-2,6-dione] | ≤ 5 nM
2 | CC(C)c1c2cc(-c3ccnc(N[C@H]4CC[C@H](NCc5cccc6c5CN(C5CCC(=O)NC5=O)C6=O)C4)n3)cc(F)c2nn1C (stereo partly drawn) [Compound I-10, 3-(4-((((1S,3S)-3-((4-(7-fluoro-3-isopropyl-2-methyl-2H-indazol-5-yl)pyrimidin-2-yl)amino)cyclopentyl)amino)methyl)-1-oxoisoindolin-2-yl)piperidine-2,6-dione] | ≤ 5 nM
3 | CC(C)c1c2cc(-c3ccnc(N[C@H]4CC[C@H](NCc5ccc(-c6ccccn6)cc5)C4)n3)ccc2nn1C [Compound I-11, (1S,3S)-N^1-(4-(3-isopropyl-2-methyl-2H-indazol-5-yl)pyrimidin-2-yl)-N^3-(4-(pyridin-2-yl)benzyl)cyclopentane-1,3-diamine] | 5 to 1000 nM
4 | CC(C)c1c2cc(-c3ccnc(N[C@H]4CC[C@H](NCc5cccc6c5C(=O)N(C5CCC(=O)NC5=O)C6=O)C4)n3)cc(F)c2nn1C (stereo partly drawn) [Compound I-9, 2-(2,6-dioxopiperidin-3-yl)-4-((((1S,3S)-3-((4-(7-fluoro-3-isopropyl-2-methyl-2H-indazol-5-yl)pyrimidin-2-yl)amino)cyclopentyl)amino)methyl)isoindoline-1,3-dione] | 5 to 1000 nM
5 | CC(C)c1c2cc(-c3ccnc(N[C@H]4CC[C@H](NC(=O)N5CCN(CCCCCc6cccc7c6C(=O)N(C6CCC(=O)NC6=O)C7=O)CC5)C4)n3)ccc2nn1C (stereo partly drawn) [Compound I-3, 4-(5-(2-(2,6-dioxopiperidin-3-yl)-1,3-dioxoisoindolin-4-yl)pentyl)-N-((1S,3S)-3-((4-(3-isopropyl-2-methyl-2H-indazol-5-yl)pyrimidin-2-yl)amino)cyclopentyl)piperazine-1-carboxamide] | ≤ 5 nM
6 | CC(C)c1c2cc(-c3ccnc(N[C@H]4CC[C@H](NC(=O)N5CCN(CCCCCc6ccc7c(c6)C(=O)N(C6CCC(=O)NC6=O)C7=O)CC5)C4)n3)cc(F)c2nn1C (stereo partly drawn) [Compound I-5, 4-(5-(2-(2,6-dioxopiperidin-3-yl)-1,3-dioxoisoindolin-5-yl)pentyl)-N-((1S,3S)-3-((4-(7-fluoro-3-isopropyl-2-methyl-2H-indazol-5-yl)pyrimidin-2-yl)amino)cyclopentyl)piperazine-1-carboxamide] | ≤ 5 nM
7 | CC(C)c1c2cc(-c3ccnc(N[C@H]4CC[C@H](NCCCCCc5cccc6c5CN(C5CCC(=O)NC5=O)C6=O)C4)n3)ccc2nn1C (stereo partly drawn) [Compound I-1, 3-(4-(5-(((1S,3S)-3-((4-(3-isopropyl-2-methyl-2H-indazol-5-yl)pyrimidin-2-yl)amino)cyclopentyl)amino)pentyl)-1-oxoisoindolin-2-yl)piperidine-2,6-dione] | 5 to 1000 nM

Continued, values first:

Row | IC50 | Compound
8 | ≤ 5 nM | CC(C)c1c2cc(-c3ccnc(N[C@H]4CC[C@H](NC(=O)N5CCN(CCCCCc6ccc7c(c6)CN(C6CCC(=O)NC6=O)C7=O)CC5)C4)n3)cc(F)c2nn1C (stereo partly drawn) [Compound I-6, 4-(5-(2-(2,6-dioxopiperidin-3-yl)-1-oxoisoindolin-5-yl)pentyl)-N-((1S,3S)-3-((4-(7-fluoro-3-isopropyl-2-methyl-2H-indazol-5-yl)pyrimidin-2-yl)amino)cyclopentyl)piperazine-1-carboxamide]
9 | 5 to 1000 nM | CC(C)c1c2cc(-c3ccnc(N[C@H]4CC[C@H](NCCCCCc5cccc6c5C(=O)N(C5CCC(=O)NC5=O)C6=O)C4)n3)ccc2nn1C (stereo partly drawn) [Compound I-2, 2-(2,6-dioxopiperidin-3-yl)-4-(5-(((1S,3S)-3-((4-(3-isopropyl-2-methyl-2H-indazol-5-yl)pyrimidin-2-yl)amino)cyclopentyl)amino)pentyl)isoindoline-1,3-dione]
10 | 5 to 1000 nM | CC(C)c1c2cc(-c3ccnc(N[C@H]4CC[C@H](NCc5ccc(-c6ccccn6)cc5)C4)n3)cc(F)c2nn1C [Compound I-12, (1S,3S)-N^1-(4-(7-fluoro-3-isopropyl-2-methyl-2H-indazol-5-yl)pyrimidin-2-yl)-N^3-(4-(pyridin-2-yl)benzyl)cyclopentane-1,3-diamine]
11 | 5 to 1000 nM | CC(C)c1c2cc(-c3ccnc(N[C@H]4CC[C@H](NCc5cccc6c5C(=O)N(C5CCC(=O)NC5=O)C6=O)C4)n3)ccc2nn1C (stereo partly drawn) [Compound I-7, 2-(2,6-dioxopiperidin-3-yl)-4-((((1S,3S)-3-((4-(3-isopropyl-2-methyl-2H-indazol-5-yl)pyrimidin-2-yl)amino)cyclopentyl)amino)methyl)isoindoline-1,3-dione]
12 | ≤ 5 nM | CC(C)c1c2cc(-c3ccnc(N[C@H]4CC[C@H](NC(=O)N5CCN(CCCCCc6cccc7c6CN(C6CCC(=O)NC6=O)C7=O)CC5)C4)n3)ccc2nn1C (stereo partly drawn) [Compound I-4, 4-(5-(2-(2,6-dioxopiperidin-3-yl)-1-oxoisoindolin-4-yl)pentyl)-N-((1S,3S)-3-((4-(3-isopropyl-2-methyl-2H-indazol-5-yl)pyrimidin-2-yl)amino)cyclopentyl)piperazine-1-carboxamide]
